Data published in PMC4116331 (Journal of molecular biology, 2014).
Like-named read-outs stand apart in the source and are kept apart here.

Assays:
[1] = target: RT DNA polymerase activity (Human immunodeficiency virus type 1 group M subtype B, UniProt P04585); experiment: RT RNA-dependent DNA polymerase activity; assay type: biochemical, HIV-1
[2] = target: RT-RNase H; details: read-out: IC50, RT-RNase H, cited from earlier work
[3] = test system: RT-RNase H; experiment: RT-RNase H inhibition of other RNHIs; assay type: biochemical, HIV-1
[4] = read-out: In vitro IC50 RT DNA pol, pH 7.4, 1 mM Mg2+

In the case of `O=C(O)Cc1cc(=O)oc2c(O)c(O)ccc12` [Compound F3284-8495, (7,8-dihydroxy-2-oxo-2H-chromen-4-yl)acetic acid], the IC50 [1] is reported as greater than 10 µM and the “Inhibition of RT DNA polymerase activity” value ([1]; at 10 µM, the highest concentration tested) is reported as “no detectable inhibition”.
For `O=c1cc(CN2CCN(C(c3ccccc3)c3ccccc3)CC2)c2ccc(O)c(O)c2o1` [Compound F3385-2581], the IC50 [1, 4] was 2.2 µM.
With `COc1ccc(N2CCN(Cc3cc(=O)oc4c(O)c(O)ccc34)CC2)cc1.Cl.Cl` [Compound F3385-2588] the “Inhibition of the DNA polymerase activity of RT (in words)” value [1] was “did not inhibit” and the IC50 [1, 4] was greater than 10 µM.
With `O=c1cc(CN2CCN(c3cccc(Cl)c3)CC2)c2ccc(O)c(O)c2o1` [Compound F3385-2590] the IC50 [1, 4] was 2.5 µM.
In the case of `CC(C)c1ccc(O)c(=O)c(O)c1` [β-Thujaplicinol, β-thujaplicinol], the IC50 [2]; 31 is given as 0.21 µM and the “Fold greater activity than F3284-8495 against the RNase H of full-length RT” value [3] is given as “greater than 20 fold”.
For manicol, the IC50 [2] is listed as 0.6 µM.
